This note sets out measurements from US20260317356A1, “SMALL MOLECULE MODULATORS OF OGG1” (AZKARRA THERAPEUTICS, INC., priority 2023, published 2026).

One assay concerns the target T1, nLucOGG1 in HeLa cells (Homo sapiens, UniProt O15527).
T1 construct: thermal shift read by NanoGlo luminescence
In words: Cellular Thermal Shift Assay to measure compound affinity for nLucOGG1 in HeLa cells (CETSA DTm). In kind it is cell-based. Conditions: 10 μM compound, 37° C. 60 min, Tm vs DMSO control. The method, then: Biological Example 2: Cellular Thermal Shift Assay to Measure Compound Affinity for ^nLucOGG1 in HeLa Cells (CETSA DTm)
Cell Culture and Transfection of Hela Cells with ^nLucOGG1: For all tests, Hela cells were maintained in growth medium, Dulbecco's Minimum Eagle Medium (Multicell: Cat #319-005-CL) supplemented with 10% heat-inactivated fetal bovine serum (Gibco: Cat #12484-028) at 37° C. and 5% CO2 in a humidified tissue culture incubator. Transient transfections were performed using the Lonza 4-D Nucleofector X unit according to the manufacturer's protocol (Lonza Cat #V4XC-1024). Briefly, for each transfection, 1.2×10^6 cells were centrifuged at 1000 RPM for 5 minutes at room temperature before being diluted in 100 μL SE solution containing 18% v/v supplement and 1.5 μg pNF1-N-empty or pNF1-N-OGG1a vector. The total volume was transferred to a 100 μL nucleofection cuvette prior to transfer to the apparatus where HeLa cell nucleofection protocol CN-114 was executed. Following nucleofection, 500 μL complete media was added to the cells in the cuvette before transferring to a 6-well dish containing 1.5 mL of complete media. Cells were left to incubate for 48 hours before performing all cellular thermal shift experiments.
Cellular Thermal Shift Assays for Target Engagement (CETSA): Forty-eight hours following nucleofection, cells were washed once with DPBS−/−(Multicell: Cat #311-425-CL) and lifted with 0.25% Trypsin-EDTA (Multicell: Cat #325-043-CL) prior to dilution in growth medium and centrifugation at 1000 RPM for 5 minutes at room temperature. The resulting cell pellet was then resuspended in growth medium, cells were counted and the volume adjusted to 500 k cells/mL (2×).
For delta Tm determination, OGG1 inhibitor compounds were dissolved in DMSO to a final working concentration of 20 mM. Working solutions were then diluted in complete media to 20 μM or 0.1% DMSO for the vehicle control (2×). 2×OGG1 inhibitor compound solutions or 0.1% DMSO control were then pre-dispensed into MicroAmp Optical 96-well PCR reaction plates (Applied Biosystems: Cat #4346906) at 50 μL/well. Next, 50 μL or 25 k cells/well from the 2× cell suspension was added to the pre-loaded PCR plates. All plates were prepared as duplicates, covered with adhesive plate sealers (Perkin Elmer: Cat #6050185) and left to incubate at 37° C. for 60 minutes. During incubation, sufficient NanoGlo luciferase assay reagents (Promega: Cat #N1120) were left to equilibrate to room temperature in the dark. Immediately before heating the plates, the NanoGlo substrate was mixed with the NanoGlo buffer at a 1:50 ratio. The thermal cycler (Veriti 96-Well Thermal Cycler, Thermo Fisher Scientific) was allowed to reach the designated temperature prior to placement of the PCR plate into the heating block. For Tm determination experiments, duplicate plates containing a fixed concentration of test compound (10 μM final) as well as vehicle control were prepared to perform a 12-point temperature gradient spanning 37-70° C. for 3 minutes. Therefore, two thermal cycler protocols were set up covering two 6-step temperature gradients ranging from 37-52° C. and 52-70° C. Plates were then allowed to cool at room temperature for 5 minutes after the heat treatment followed by transfer of 75 μL of the reaction into a 96-well white polystyrene microplate (Corning: Cat #CLS3903) and addition of 75 μL of the prepared NanoGlo mixture. Microplates were then left to shake in the dark for 5 minutes before total luminescence was measured on a SpectraMax IX3 plate reader. The luminescence value obtained at each temperature was normalized to the luminescence obtained at 37° C. and the ratio obtained was plotted against the temperature. A Boltzman Sigmoidal non-linear regression was applied to the resulting data to determine Tm values and the difference between the Tm value for a given OGG1 inhibitor relative to the DMSO vehicle control was the delta Tm.

Another assay addresses hOGG1 (Homo sapiens, UniProt O15527). In words: Biochemical fluorescence assay to measure enzymatic activity of hOGG1 (OGG1/APEX IC50). Set-up: Protein His-hOGG1 (12-323) was prepared; His (N); host or cells: E. coli. Particulars: 1 nM OGG1+2 nM APEX+6 nM dsDNA (8-oxo-dG substrate); pH 7.5; RT 40 min; read-out: OGG1/APEX IC50. Summed up: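 His-hOGG1 (12-323, E. coli) at 1 nM with 2 nM hAPE1/APEX1, preincubated 20 min RT with compound. Then 6 nM 8-oxo-dG dsDNA substrate added, 40 min at RT in Tris pH 7.5, 100 mM KCl. TAMRA fluorescence (Ex520/Em600) converted to % inhibition vs controls; IC50 from 3-parameter fit of 10-point curve.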

Some results are limits rather than exact numbers.

Usually ΔTm stands for the change in melting temperature against a reference sample.

Sequence of hOGG1 (O15527 12-323): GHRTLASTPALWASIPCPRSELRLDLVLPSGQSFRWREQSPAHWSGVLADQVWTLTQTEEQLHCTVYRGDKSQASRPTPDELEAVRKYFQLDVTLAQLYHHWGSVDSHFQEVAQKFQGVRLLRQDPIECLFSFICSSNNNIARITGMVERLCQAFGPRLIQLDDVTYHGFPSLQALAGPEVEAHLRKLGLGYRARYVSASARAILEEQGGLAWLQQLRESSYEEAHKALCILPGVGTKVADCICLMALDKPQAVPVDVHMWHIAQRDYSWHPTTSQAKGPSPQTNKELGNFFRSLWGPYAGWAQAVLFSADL
T1 sequence (O15527 whole entry): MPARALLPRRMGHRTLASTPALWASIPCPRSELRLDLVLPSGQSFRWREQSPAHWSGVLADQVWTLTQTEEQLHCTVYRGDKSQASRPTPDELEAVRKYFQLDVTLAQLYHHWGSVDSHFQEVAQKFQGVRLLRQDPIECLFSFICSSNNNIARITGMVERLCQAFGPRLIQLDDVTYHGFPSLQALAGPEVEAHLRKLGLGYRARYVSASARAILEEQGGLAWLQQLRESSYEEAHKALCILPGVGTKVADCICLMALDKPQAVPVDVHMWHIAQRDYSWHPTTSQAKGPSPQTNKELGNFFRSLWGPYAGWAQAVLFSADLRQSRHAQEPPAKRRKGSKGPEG

`Cc1cc(NCCN(C)C)cc2c1CN([C@H]1CC[C@@H](C(=O)Nc3cc4ccccc4[nH]3)CC1)C2=O` [Example 132, (1s,4s)-4-(6-((2-(Dimethylamino)ethyl)amino)-4-methyl-1-oxoisoindolin-2-yl)-N-(1H-indol-2-yl)cyclohexane-1-carboxamide]: on nLucOGG1 in HeLa cells, the shift in melting temperature (ΔTm) at 10 µM was greater than 10 °C.
Take `COc1cc(NC(=O)[C@H]2CC[C@@H](N3Cc4c(C)cc(OCC5(F)CNC5)cc4C3=O)CC2)ccc1C` [Example 141, (1s,4s)-4-(6-((3-Fluoroazetidin-3-yl)methoxy)-4-methyl-1-oxoisoindolin-2-yl)-N-(3-methoxy-4-methylphenyl)cyclohexanecarboxamide]: the IC50 at hOGG1 was less than 100 nM.
On the same count and under the same terms, the same measure for `COc1ccc(NC(=O)[C@H]2CC[C@@H](N3Cc4c(C)cccc4C3=O)CC2)cc1Cl` [Example 238, (1s,4s)-N-(3-Chloro-4-methoxyphenyl)-4-(4-methyl-1-oxoisoindolin-2-yl)cyclohexanecarboxamide]: 100 to 1000 nM.
With `Cc1cccc2c1CN([C@H]1CC[C@@H](C(=O)Nc3ccc(O)cc3)CC1)C2=O` [Example 229, (1s,4s)-N-(4-Hydroxyphenyl)-4-(4-methyl-1-oxoisoindolin-2-yl)cyclohexanecarboxamide], the IC50 on hOGG1 is 1000 to 10000 nM.
On the same count and under the same terms, the same measure for `COc1cc(NC(=O)[C@H]2CC[C@@H](N3Cc4c(CF)cccc4C3=O)CC2)ccc1C` [Example 166, (1s,4s)-4-(4-(Fluoromethyl)-1-oxoisoindolin-2-yl)-N-(3-methoxy-4-methylphenyl)cyclohexanecarboxamide]: 1000 to 10000 nM; for `COc1cc(NC(=O)[C@H]2CC[C@@H](N3Cc4c(ccc(O)c4Br)C3=O)CC2)ccc1C` [Example 189, (1s,4s)-4-(4-Bromo-5-hydroxy-1-oxoisoindolin-2-yl)-N-(3-methoxy-4-methylphenyl)cyclohexanecarboxamide]: 100 to 1000 nM; for `COc1cc(NC(=O)[C@H]2CC[C@@H](N3Cc4c(Cl)cccc4N(C)C3=O)CC2)ccc1C` [Example 73, (1s,4s)-4-(5-chloro-1-methyl-2-oxo-1,2-dihydroquinazolin-3(4H)-yl)-N-(3-methoxy-4-methylphenyl)cyclohexanecarboxamide]: 100 to 1000 nM.
On the same count and under the same terms, next, `COc1cc(NC(=O)[C@H]2CC[C@@H](N3Cc4c(C)cc(NCC5(F)CNC5)cc4C3=O)CC2)ccc1C` [Example 140, (1s,4s)-4-(6-(((3-Fluoroazetidin-3-yl)methyl)amino)-4-methyl-1-oxoisoindolin-2-yl)-N-(3-methoxy-4-methylphenyl)cyclohexanecarboxamide]: less than 100 nM; `COc1cc(NC(=O)[C@H]2CC[C@@H](n3oc4c(Br)cccc4c3=O)CC2)ccc1C` [Example 184, (1s,4s)-4-(7-Bromo-3-oxobenzo[d]isoxazol-2(3H)-yl)-N-(3-methoxy-4-methylphenyl)cyclohexanecarboxamide]: greater than 10000 nM; `Cn1c(NC(=O)[C@H]2CC[C@@H](N3Cc4c(Br)cccc4C3=O)CC2)nc2ccccc21` [Example 190, (1s,4s)-4-(4-Bromo-1-oxoisoindolin-2-yl)-N-(1-methyl-1H-benzo[d]imidazol-2-yl)cyclohexanecarboxamide]: 1000 to 10000 nM.
With `Cc1cccc2c1CN([C@H]1CC[C@@H](C(=O)Nc3ccc(Cl)c(C#N)c3)CC1)C2=O` [Example 263, (1s,4s)-N-(4-Chloro-3-cyanophenyl)-4-(4-methyl-1-oxoisoindolin-2-yl)cyclohexanecarboxamide], the IC50 at hOGG1 lay within 100 to 1000 nM.
Still for that read-out and setting: next, `COc1cc(NC(=O)[C@H]2CC[C@H](n3[nH]c4c(Br)cccc4c3=O)CC2)ccc1C` (single isomer, unassigned) [Example 159, (1r,4r)-4-(7-Bromo-3-oxo-1H-indazol-2(3H)-yl)-N-(3-methoxy-4-methylphenyl)cyclohexanecarboxamide]: greater than 10000 nM; `COc1cc(NC(=O)[C@H]2CC[C@@H](N3Cc4c(C)ccc(C5CC5)c4NC3=O)CC2)ccc1C` [Example 39, (1s,4s)-4-(8-Cyclopropyl-5-methyl-2-oxo-1,2-dihydroquinazolin-3(4H)-yl)-N-(3-methoxy-4-methylphenyl)cyclohexanecarboxamide]: less than 100 nM.
In the case of `O=C1c2cccc(Br)c2CN1[C@H]1CC[C@@H](C(=O)Nc2ccc3c(c2)OCCO3)CC1` [Example 191, (1s,4s)-4-(4-Bromo-1-oxoisoindolin-2-yl)-N-(2,3-dihydrobenzo[b][1,4]dioxin-6-yl)cyclohexanecarboxamide], on hOGG1, the IC50 lay in the range of 1000 to 10000 nM.
Consider `COc1cccc(NC(=O)[C@H]2CC[C@@H](N3Cc4c(C)cccc4C3=O)CC2)c1` [Example 245, (1s,4s)-N-(3-Methoxyphenyl)-4-(4-methyl-1-oxoisoindolin-2-yl)cyclohexanecarboxamide], for which the IC50 at hOGG1 fell in the range of 1000 to 10000 nM.
